Assay: Patient incidence of adverse events (CTCAE version 4.0)
Assay type: in vivo
Conditions: dose escalation
From the text: Each patient was monitored for 21 days for the occurrence of dose-limiting toxicities (DLTs), defined as febrile neutropenia, neutropenic infection, grade 4 neutropenia lasting >7 days, grade ≥ 3 thrombocytopenia lasting >7 days (solid tumors only), grade 3 thrombocytopenia with grade ≥ 2 bleeding (solid tumors only), grade 3 or 4 thrombocytopenia with grade > 1 bleeding (multiple myeloma only), grade 4 thrombocytopenia (solid tumors only), or grade 4 thrombocytopenia lasting >14 days (multiple myeloma only), or as grade ≥ 3 nausea, vomiting, or diarrhea after support; grade 3 fatigue lasting >7 days; any other grade ≥ 3 adverse event (AE); grade ≥ 3 kidney injury (multiple myeloma only), or treatment-related AEs not returning to grade ≤ 1 (solid tumors only) per Common Terminology Criteria for Adverse Events (CTCAE), version 4.0. The MTD was defined as the maximum dose, at which the probability of a DLT was ≤25% in Part 1A and ≤ 33% in Parts 1B and 1C. Treatment continued until disease progression, intolerable toxicity, or withdrawal of consent.
AEs were recorded for all enrolled patients.

## CC(C)[C@@H](CS(=O)(=O)C(C)C)N1C(=O)[C@@](C)(CC(=O)O)C[C@H](c2cccc(Cl)c2)[C@H]1c1ccc(Cl)cc1 [AMG 232]
30 mg (n = 3)
  Treatment-related serious AE: Dehydration (grade 2): 0 n (%)
  Treatment-related serious AE: Diarrhea: 0 n (%)
  Treatment-related serious AE: Diarrhea, Grade 2: 0 n (%)
  Treatment-related serious AE: Diarrhea, Grade 3: 0 n (%)
  Treatment-related serious AE: Febrile neutropenia (grade 3): 0 n (%)
  Treatment-related serious AE: Hematemesis (grade 3): 0 n (%)
  Treatment-related serious AE: Nausea (grade 3): 0 n (%)
  Treatment-related serious AE: Neutropenia (grade 4): 0 n (%)
  Treatment-related serious AE: Non-cardiac chest pain (grade 3): 0 n (%)
  Treatment-related serious AE: Thrombocytopenia (grade 4): 0 n (%)
  Treatment-related serious AE: Vomiting: 0 n (%)
  Treatment-related serious AE: Vomiting, Grade 2: 0 n (%)
  Treatment-related serious AE: Vomiting, Grade 3: 0 n (%)
60 mg (n = 4)
  Patients with any treatment-emergent AE: 4 (100) n (%)
  Patients with any treatment-emergent serious AE: 0 n (%)
  Patients with any treatment-related AE: 3 (75) n (%)
  Patients with any treatment-related AE, Grade 3: 0 n (%)
  Patients with any treatment-related AE, Grade 4: 0 n (%)
  Patients with any treatment-related AE, Grade 5: 0 n (%)
  Patients with any treatment-related serious AE: 0 n (%)
  Treatment-related AE: Abdominal pain: 0 n (%)
  Treatment-related AE: Anemia: 0 n (%)
  Treatment-related AE: Asthenia: 0 n (%)
  Treatment-related AE: Decrease appetite: 1 (25) n (%)
  Treatment-related AE: Diarrhea: 1 (25) n (%)
  Treatment-related AE: Dysgeusia: 0 n (%)
  Treatment-related AE: Fatigue: 1 (25) n (%)
  Treatment-related AE: Myalgia: 0 n (%)
  Treatment-related AE: Nausea: 3 (75) n (%)
  Treatment-related AE: Neutropenia: 0 n (%)
  Treatment-related AE: Thrombocytopenia: 0 n (%)
  Treatment-related AE: Upper abdominal pain: 0 n (%)
  Treatment-related AE: Vomiting: 0 n (%)
  Treatment-related serious AE: Abdominal pain (grade 2): 0 n (%)
  Treatment-related serious AE: Dehydration (grade 2): 0 n (%)
  Treatment-related serious AE: Diarrhea: 0 n (%)
  Treatment-related serious AE: Diarrhea, Grade 2: 0 n (%)
  Treatment-related serious AE: Diarrhea, Grade 3: 0 n (%)
  Treatment-related serious AE: Febrile neutropenia (grade 3): 0 n (%)
  Treatment-related serious AE: Hematemesis (grade 3): 0 n (%)
  Treatment-related serious AE: Nausea (grade 3): 0 n (%)
  Treatment-related serious AE: Neutropenia (grade 4): 0 n (%)
  Treatment-related serious AE: Non-cardiac chest pain (grade 3): 0 n (%)
  Treatment-related serious AE: Thrombocytopenia (grade 4): 0 n (%)
  Treatment-related serious AE: Vomiting: 0 n (%)
  Treatment-related serious AE: Vomiting, Grade 2: 0 n (%)
  Treatment-related serious AE: Vomiting, Grade 3: 0 n (%)
120 mg (n = 7)
  Patients with any treatment-emergent AE: 7 (100) n (%)
  Patients with any treatment-emergent serious AE: 3 (43) n (%)
  Patients with any treatment-related AE: 7 (100) n (%)
  Patients with any treatment-related AE, Grade 3: 1 (14) n (%)
  Patients with any treatment-related AE, Grade 4: 1 (14) n (%)
  Patients with any treatment-related AE, Grade 5: 0 n (%)
  Patients with any treatment-related serious AE: 0 n (%)
  Treatment-related AE: Abdominal pain: 0 n (%)
  Treatment-related AE: Anemia: 0 n (%)
  Treatment-related AE: Asthenia: 0 n (%)
  Treatment-related AE: Decrease appetite: 2 (29) n (%)
  Treatment-related AE: Diarrhea: 3 (43) n (%)
  Treatment-related AE: Dysgeusia: 0 n (%)
  Treatment-related AE: Fatigue: 3 (43) n (%)
  Treatment-related AE: Myalgia: 1 (14) n (%)
  Treatment-related AE: Nausea: 3 (43) n (%)
  Treatment-related AE: Neutropenia: 0 n (%)
  Treatment-related AE: Thrombocytopenia: 1 (14) n (%)
  Treatment-related AE: Upper abdominal pain: 1 (14) n (%)
  Treatment-related AE: Vomiting: 2 (29) n (%)
  Treatment-related serious AE: Abdominal pain (grade 2): 0 n (%)
  Treatment-related serious AE: Dehydration (grade 2): 0 n (%)
  Treatment-related serious AE: Diarrhea: 0 n (%)
  Treatment-related serious AE: Diarrhea, Grade 2: 0 n (%)
  Treatment-related serious AE: Diarrhea, Grade 3: 0 n (%)
  Treatment-related serious AE: Febrile neutropenia (grade 3): 0 n (%)
  Treatment-related serious AE: Hematemesis (grade 3): 0 n (%)
  Treatment-related serious AE: Nausea (grade 3): 0 n (%)
  Treatment-related serious AE: Neutropenia (grade 4): 0 n (%)
  Treatment-related serious AE: Non-cardiac chest pain (grade 3): 0 n (%)
  Treatment-related serious AE: Thrombocytopenia (grade 4): 0 n (%)
  Treatment-related serious AE: Vomiting: 0 n (%)
  Treatment-related serious AE: Vomiting, Grade 2: 0 n (%)
  Treatment-related serious AE: Vomiting, Grade 3: 0 n (%)
240 mg (n = 8)
  Patients with any treatment-emergent AE: 8 (100) n (%)
  Patients with any treatment-emergent serious AE: 4 (50) n (%)
  Patients with any treatment-related AE: 8 (100) n (%)
  Patients with any treatment-related AE, Grade 3: 3 (38) n (%)
  Patients with any treatment-related AE, Grade 4: 0 n (%)
  Patients with any treatment-related AE, Grade 5: 0 n (%)
  Patients with any treatment-related serious AE: 2 (25) n (%)
  Treatment-related AE: Abdominal pain: 2 (25) n (%)
  Treatment-related AE: Anemia: 1 (13) n (%)
  Treatment-related AE: Asthenia: 1 (13) n (%)
  Treatment-related AE: Decrease appetite: 2 (25) n (%)
  Treatment-related AE: Diarrhea: 6 (75) n (%)
  Treatment-related AE: Dysgeusia: 2 (25) n (%)
  Treatment-related AE: Fatigue: 4 (50) n (%)
  Treatment-related AE: Myalgia: 0 n (%)
  Treatment-related AE: Nausea: 5 (63) n (%)
  Treatment-related AE: Neutropenia: 0 n (%)
  Treatment-related AE: Thrombocytopenia: 1 (13) n (%)
  Treatment-related AE: Upper abdominal pain: 1 (13) n (%)
  Treatment-related AE: Vomiting: 5 (63) n (%)
  Treatment-related serious AE: Abdominal pain (grade 2): 1 (13) n (%)
  Treatment-related serious AE: Dehydration (grade 2): 0 n (%)
  Treatment-related serious AE: Diarrhea: 1 (13) n (%)
  Treatment-related serious AE: Diarrhea, Grade 2: 1 (13) n (%)
  Treatment-related serious AE: Diarrhea, Grade 3: 0 n (%)
  Treatment-related serious AE: Febrile neutropenia (grade 3): 0 n (%)
  Treatment-related serious AE: Hematemesis (grade 3): 0 n (%)
  Treatment-related serious AE: Nausea (grade 3): 1 (13) n (%)
  Treatment-related serious AE: Neutropenia (grade 4): 0 n (%)
  Treatment-related serious AE: Non-cardiac chest pain (grade 3): 1 (13) n (%)
  Treatment-related serious AE: Thrombocytopenia (grade 4): 0 n (%)
  Treatment-related serious AE: Vomiting: 1 (13) n (%)
  Treatment-related serious AE: Vomiting, Grade 2: 0 n (%)
  Treatment-related serious AE: Vomiting, Grade 3: 1 (13) n (%)
300 mg (n = 4)
  Patients with any treatment-emergent AE: 4 (100) n (%)
  Patients with any treatment-emergent serious AE: 2 (50) n (%)
  Patients with any treatment-related AE: 4 (100) n (%)
  Patients with any treatment-related AE, Grade 3: 3 (75) n (%)
  Patients with any treatment-related AE, Grade 4: 2 (50) n (%)
  Patients with any treatment-related AE, Grade 5: 0 n (%)
  Patients with any treatment-related serious AE: 2 (50) n (%)
  Treatment-related AE: Abdominal pain: 1 (25) n (%)
  Treatment-related AE: Anemia: 0 n (%)
  Treatment-related AE: Asthenia: 1 (25) n (%)
  Treatment-related AE: Decrease appetite: 1 (25) n (%)
  Treatment-related AE: Diarrhea: 4 (100) n (%)
  Treatment-related AE: Dysgeusia: 1 (25) n (%)
  Treatment-related AE: Fatigue: 2 (50) n (%)
  Treatment-related AE: Myalgia: 0 n (%)
  Treatment-related AE: Nausea: 1 (25) n (%)
  Treatment-related AE: Neutropenia: 2 (50) n (%)
  Treatment-related AE: Thrombocytopenia: 3 (75) n (%)

Source: PMC7211202 (Investigational New Drugs, 2019)
